Patent publication US12653805B2, “Targeting LASP1, eIF4A1, eIF4B and CXC4 with modulators and combinations thereof for cancer therapy” (The University of Toledo, priority 2019, dated 2026)

Columns and labels:
[1] = system: triple-negative breast cancer (TNBC) cells; test: Cell viability studies with CAST compounds; format: cell-based; conditions: for concentration level at which efficacy on tumor cell viability was shown: TNBC cell viability
[2] = system: CXCR4 signaling in 231S cells; test: Western blotting of phosphorylation of eIF4B, PDCD4, 4E-BP1 after CXCR4 activation; format: cell-based, human
Procedure: Cell lysates were prepared and quantified as described. Western blots were incubated with the following 1° Abs: Cyclin D1 (Cell Signaling Technology, Danvers, Mass., Cat. No. 2922), eIF4A C32B4 (Cell Signaling Technology, Danvers, Mass., Cat. No. 2013), eIF4B 1F5 (Cell Signaling Technology, Danvers, Mass., Cat. No. 13088), p-eIF4B S422 (Thermo Scientific, Rockford, Ill., Cat No. PA5-38362), eIF4E C46H6 (Cell Signaling Technology, Danvers, Mass., Cat. No. 2067), eIF4G C45A4 (Cell Signaling Technology, Danvers, Mass., Cat. No. 2469), GST 26H1 (Cell Signaling Technology, Danvers, Mass., Cat. No. 2624), LASP1 8C6 (Biolegend, San Diego, Calif., Cat. No. 909301), MDM2 SMP14 (Santa Cruz Biotechnology, Dallas, Tex., Cat. No. sc-965), PDCD4 D29C6 (Cell Signaling Technology, Danvers, Mass., Cat. No. 9535), p-PDCD4 S67 (Sigma-Aldrich, St. Louis, Mo., Cat. No. P0072), ROCK1 C8F7 (Cell Signaling Technology, Danvers, Mass., Cat. No. 4035), survivin 71G4B7 (Cell Signaling Technology, Danvers, Mass., Cat. No. 2808), 4E-BP1 53H11 (Cell Signaling Technology, Danvers, Mass., Cat. No. 9644), p-4E-BP1 Thr70 (Cell Signaling Technology, Danvers, Mass., Cat. No. 9455), and β-tubulin D66 (Sigma/Aldrich, St. Louis, Mo., Cat. No. T0198). Following primary incubation, Western blots were incubated with Goat anti-Mouse IgG (H+L) Superclonal™ Secondary Ab conjugated to HRP (Thermo Scientific, Rockford, Ill., Cat No. A28177) or Goat anti-Rabbit IgG (H+L) Superclonal™ Secondary Ab conjugated to HRP (Thermo Scientific, Rockford, Ill., Cat No. A27036). Finally, blots were developed with Amersham™ ECL™ Prime Western Blotting Detection Reagent (GE Healthcare Life Sciences, Pittsburgh, Pa., Cat. No. RPN2232) and HyBlot ES™ Autoradiography Film (Denville Scientific, Swedesboro, N.J., Cat. No. E3212). Densitometry of the Western blots was performed using ImageJ. Calculation of fold change is given in the figure legend for each experiment.

[3] = system: LASP1-eIF4A interaction in 231S cells; test: Proximity ligation assay (PLA) of LASP1-eIF4A interaction; format: cell-based, human; conditions: 100 nM AMD3465 30 min prior to 20 nM CXCL12 5 min
Procedure: The Duolink In Situ Orange Fluorescent kit (Sigma/Aldrich, St. Louis, Mo., Cat. No. DUO92102-1KT) was employed to detect the endogenous interaction between LASP1 and eIF4A in situ in 231S cells. The PLA was performed according to the manufacturer's instructions using a rabbit eIF4A1 antibody (Cohesion Biosciences, London, Purley, Cat. No. CQA1180) and a mouse LASP1 antibody (Biolegend, San Diego, Calif., Cat. No. 909301). The single Ab control condition represents the PLA reaction with only the LASP1 antibody. In addition, cells were stained with phalloidin (Life Technologies, Carlsbad, Calif., Cat. No. A12379) and nuclei with DRAQ5 (Thermo Scientific, Rockford, Ill., Cat No. 62251). Cells were stimulated and inhibited as described. Moreover, cells were fixed, stained, and permeabilized with standard methods. The images were acquired by two-photon confocal microscopy and processed with Leica Application Suite X software (Leica, Wetzlar, Germany). Quantification of the interaction dots was performed using ImageJ.

[4] = system: eIF4F complex in 231S cells; test: m7GTP pulldown assay (eIF4F complex); format: cell-based, human
Procedure: 231S cells were serum starved for 1 h and cells were stimulated (and prepared) as described in the co-immunoprecipitation section. 100 nM AMD3465 (CXCR4 antagonist, Sigma-Aldrich, St. Louis, Mo., Cat. No. SML1433-5MG) was incubated 30 min prior to stimulation. 1 mg of total protein lysate in 1 mL of Co-IP buffer was incubated with 25 μL of m7-GTP agarose beads overnight at 4° C. (Jena Biosciences, Jena, Germany, Cat. No. AC-155S). Following incubation, beads were washed with Co-IP buffer. Protein was eluted and analyzed by SDS-PAGE and Western blotting.

eIF4A1 = molecular target: T1, eIF4A1 (Homo sapiens, UniProt P60842); format: cell-based; conditions: 3 different TNBC cell lines
T1 construct: A GQ-5′-UTR dual reporter was created in breast cancer cell lines; endogenous in cells
T1 sequence (P60842 whole entry): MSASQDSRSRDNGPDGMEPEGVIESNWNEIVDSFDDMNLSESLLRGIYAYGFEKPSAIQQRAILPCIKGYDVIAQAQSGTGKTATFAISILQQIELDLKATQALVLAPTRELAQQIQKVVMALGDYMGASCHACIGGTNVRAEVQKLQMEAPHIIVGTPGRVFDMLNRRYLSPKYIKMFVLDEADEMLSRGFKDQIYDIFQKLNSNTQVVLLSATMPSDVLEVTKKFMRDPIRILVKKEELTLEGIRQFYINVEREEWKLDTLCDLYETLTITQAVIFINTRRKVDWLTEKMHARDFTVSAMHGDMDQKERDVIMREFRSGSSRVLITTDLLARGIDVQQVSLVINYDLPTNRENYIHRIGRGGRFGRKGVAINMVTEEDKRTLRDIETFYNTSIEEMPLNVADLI
Excerpt: A GQ-5′-UTR dual reporter was created in breast cancer cell lines which would report either a reduction in td-Tomato fluorescence or luciferase activity if eIF4A1 is inhibited by any of the compounds in the Prestwick library (FIGS. 26A-26B).

SUM-159-PT TNBC cells = test: Evaluation of paclitaxel-resistant SUM-159-PT cells; format: cell-based, human
Procedure: (§1) Briefly, to assess the cell viability, 3×10^3 cells/well (SUM-159PT, SUM Pac 200 nM, MDA-Bone-Un eIF4A CC and KO) were seeded and the cells were allowed to attach and spread overnight under adherent or non-adherent low attachment conditions.

SUM-159PT cells = test: Immunoblotting of SUM-159PT cells after chronic paclitaxel treatment (Pac 200)
[5] = system: paclitaxel-resistant SUM-159PT cells; test: Chemosensitivity to paclitaxel of CRISPR control and eIF4A1-KO cells derived from paclitaxel-resistant SUM-159PT (CellTiter-Glo); format: cell-based, human; conditions: 48 h; for IC50: Homo sapiens, SUM-159-PT
Procedure: as §1
For generation of CRISPR/Cas9-mediated eIF4A1 knockout (KO), a set of CRISPR/Cas9 plasmids (Santa Cruz, Dallas, Tex., Cat. #—sc-402623) were transfected into therapy-naïve and paclitaxel-resistant tumor cells using UltraCruz reagent (Santa Cruz, Dallas, Tex., Cat. #— sc-395739) following the manufacturer's instructions. After 24 h, the supernatant was removed and replaced with regular media and cells were further cultured for a total of 72 h. eIF4A1 KO cells were sorted out based on the expression of green fluorescent protein (GFP). Single KO cells were isolated by limiting dilution in 96-well plates. The KO was verified by immunoblotting for eIF4A. Non-targeting CRISPR/Cas9 plasmids were employed to obtain the CRISPR-control cells (Santa Cruz, Dallas, Tex., Cat. #—sc-418922).

BCSCs = conditions: cited from earlier work
[6] = Pac 200 vs therapy naïve SUM-159PT
[7] = paclitaxel-resistant vs therapy-naïve SUM-159-PT

## O=C(N/C(=C/c1cccnc1)c1nc2ccccc2[nH]1)c1cccc(Br)c1 [AE-848/14270010]
[1]; CRISPR/control cells, lowest concentration of 50 μM, read-out: loss of viability of TNBC cells
  cytotoxicity at 50 µM: ~35%
[1]; LASP1-knockout cells, 50 μM
  viability at 50 µM: 50%
[1]; LASP1 genetically knocked out
  loss of viability: 50%
[1]
  concentration level at which efficacy on tumor cell viability was shown: 50 µM
[1]; eIF4A1 knocked out cells
  cell viability change: gain in viability

## c1ccc(CNCc2ccc(CN3CCCNCCNCCCNCC3)cc2)nc1 [AMD3465]
[2]; AMD3465
  effect on CXCL12-induced increase in p-eIF4B levels at 10 min: abrogated
  effect on CXCL12-induced increase in pT70-4E-BP1 levels: abrogated
[2]; AMD3465 pretreatment
  effect on CXCL12-induced increase in pS67-PDCD4 level at 5 min: abrogated
[3]
  LASP1-eIF4A interaction dots (interactions/cell): 13.3±10.2 dots
[4]; 100 nM AMD3465
  effect on peak eIF4G recruitment at 5 min of CXCL12: reduced
[4]; pre-treatment 100 nM AMD3465
  effect on CXCL12-dependent recruitment of LASP1 at 5 min: abrogated

## Clc1ccccc1COc1ccc2ccccc2c1CNCc1cccnc1 [AN-465/41673523]
[1]
  concentration level at which efficacy on tumor cell viability was shown: 75 µM

## C[C@]12CC[C@H](O)C[C@H]1CC[C@@H]1[C@@H]2CC[C@]2(C)[C@@H](C3=CC(=O)OC3)CC[C@]12O [digitoxigenin]
eIF4A1
  activity of eIF4A1: potently inhibited

## CC(=O)O[C@H]1C(=O)[C@@]2(C)[C@H]([C@H](OC(=O)c3ccccc3)[C@]3(O)C[C@H](OC(=O)[C@H](O)[C@@H](NC(=O)c4ccccc4)c4ccccc4)C(C)=C1C3(C)C)[C@]1(OC(C)=O)CO[C@@H]1C[C@@H]2O [paclitaxel]
SUM-159-PT TNBC cells; Homo sapiens, SUM-159-PT, parental SUM-159-PT cells, paclitaxel
  IC50: 2 nM
SUM-159-PT TNBC cells; paclitaxel-resistant vs parental SUM-159-PT
  resistance factor: 675.5 fold
SUM-159PT cells; [6]
  enhanced expression of Cyclin D3: 2.7 fold
  enhanced expression of NANOG: 1.4 fold
  enhanced expression of OCT4: 3 fold
  enhanced expression of SOX2: 2.7 fold
  enhanced expression of survivin or BIRC5: 4 fold
  increase in ABCB1 (P-glycoprotein, MDR1) protein level: 10.8 fold
  increase in ABCG2 (BCRP) protein level: 2.4 fold
  increase in ALDH1A1 level: 2.4 fold
  increase in CD44 level: 6.1 fold
  increase in expression of eIF4A: 25.8 fold
SUM-159PT cells; Pac 200 vs therapy naïve SUM-159PT, not statistically significant
  enhanced expression of ROCK1: 1.5 fold
SUM-159PT cells; [7]
  expression of E-cadherin: decreasing trend
  increase in Snail1 protein level: 2 fold
SUM-159PT cells; three biological replicates, p<0.0001
  increase in ABCB1 protein level, independent verification: 14 fold
SUM-159PT cells; three biological replicates, p<0.001
  increase in ABCG2 protein level, independent verification: 4 fold
[5]; CRISPR-control SUM-159PT cells (from Pac 200)
  IC50: 904 nM
[5]; eIF4A1-KO cells (from Pac 200)
  IC50: 609 nM
[5]; paclitaxel
  change in IC50, eIF4A1-KO vs CRISPR-control: −1.5 fold

## O=C(O)C(Cc1ccccc1[N+](=O)[O-])=NNc1nc(-c2ccc(Cl)c(Cl)c2)cs1 (mixture of isomers) [4EGI-1]
BCSCs; 4EGI-1 treated BCSCs
  NANOG, OCT4 levels: downregulated
BCSCs
  proliferation of BCSCs: effectively inhibited

## COc1cccc2c1C(=O)c1c(O)c3c(c(O)c1C2=O)C[C@@](O)(C(=O)CO)C[C@@H]3O[C@H]1C[C@H](N)[C@H](O)[C@H](C)O1 [doxorubicin]
SUM-159-PT TNBC cells; paclitaxel-resistant SUM-159-PT cells
  cross-resistance of paclitaxel-resistant cells: cross-resistant

## CC(=O)O[C@H]1C[C@H](O[C@H]2[C@@H](O)C[C@H](O[C@H]3[C@@H](O)C[C@H](O[C@H]4CC[C@@]5(C)[C@H](CC[C@@H]6[C@@H]5C[C@@H](O)[C@]5(C)[C@@H](C7=CC(=O)OC7)CC[C@]65O)C4)O[C@@H]3C)O[C@@H]2C)O[C@H](C)[C@H]1O[C@@H]1O[C@H](CO)[C@@H](O)[C@H](O)[C@H]1O [lanotoside C]
eIF4A1
  activity of eIF4A1: potently inhibited
